Columns and labels:
[1] = test system: mouse adult neural stem cells; assay: Thymidine incorporation, adult mouse NSC, non-adherent culture; format: cell-based; details: non-adherent conditions, 3 days, all PACAP treatments relative to controls
Experimental: To determine thymidine incorporation into DNA, neurospheres were split and seeded in Neurosphere medium as single cells in 96-well plates, 10,000 cells/well. Substances to be measured were added in quadruplicates and cells were incubated at 37° C. for 3 days. 3H-thymidine, 10 uCi/ml, was present the last 24 hours. Cells were harvested on to a filter paper and radioactivity was measured. 3H-thymidine (6,7 Ci/mmol) was from PerkinElmer.

[2] = test system: primary adult NSC; assay: Culture of neurospheres for counting and photographing; format: cell-based, mouse; details: PACAP 100 nM in place of EGF, 7 days, versus control
Experimental: Anterior lateral wall of the lateral ventricle was dissociated as described in Example 2 (Method A), and the cells resuspended in Neurosphere medium without EGF. The cell suspension was divided into a 24-well plate with triplicates of control (no addition), PACAP treated and EGF (1 nM) treated cells. The final concentration of PACAP was 100 nM. After 7 days the spheres were counted and photographed using a Nikon Eclipse TE300 microscope and Nikon Spot Insight camera.

[3] = test system: AP-1; assay: AP-1 transcription factor reporter assay; format: cell-based, mouse; details: PACAP 100 nM, 20 hours after induction, compared to non-induced cells
Experimental: Vectors: Vector DNA containing reporter elements for AP-1 and empty cloning vector (pTAL), with a luciferace reporter were purchased from Promega. The vectors were propagated in E. coli strain JM-109 (Promega) and purified with Qiagens maxi-prep Kit (Qiagen). The concentration was diluted to approximately 1 mg/ml per vector.
Transfection: Transient transfection was performed by seeding cells as above in suspension neurosphere cell culture and adherent neurosphere cell culture (1 to 3 day incubation) using 30,000 single cells/well. Each well was transiently transfected with […] plasmid, 0.6 μg Nupherin-neuron (Biomol) and 0,6 μl of Fugene-6 (Roche). Plasmid and Nupherin was mixed and diluted in DMEM/F12 to a total volume of 50 μl/well, and were incubated for 15 minutes prior to mixing with Fugene-6 that were diluted in DMEM/F12 to a total volume of 50 μl/well. The mix of plasmid and Nupherin and Fugene-6 were incubated for 20 min. The volume was adjusted to 100 μl prior to addition of 100 μl/well of transfection reagent.
Assay: The following day the transiently transfected cells were applied with PACAP (Bachem) to final concentration of 100 nM/well, in the presence or absence of MEK inhibitor, […] (Sigma-Aldrich). Luciferace activity was analysed with steady glow (Promega) according to the instructions of the manufacturer. Cells were analysed 20 hours after induction with PACAP.

[4] = test system: subventricular zone NSC; assay: PACAP/BrdU infusion, BrdU labelling of the lateral ventricle wall; format: in vivo, mouse; details: 600 nM pump concentration, 0.5 μl/hr into the lateral ventricle, 3.5 days, relative to vehicle
Experimental: 10 week old male mice (C57B1/2), maintained on a 12 hr light/dark cycle with food and water ad libidum, were infused in the right lateral ventricle with PACAP38 (Bachem), using a Alzet pump (1007D), for 3,5 days or 7 days at a daily dose of 31 ng/day (600 nM PACAP pump concentration infused at a rate of 0.5 μl/hr). Bromodeoxyuridine (BrdU) (50 mg/ml) was also included in the infusion vehicle (0.9% saline containing 1 mg/ml mouse serum albumin (Sigma)) to enable measurement of proliferation by quantitation of BrdU incorporation in the DNA. The group of infused with either PACAP/BrdU or vehicle/BrdU for 3,5 days and sacrificed at this time point. […]
Brains were cut into 14-μm coronal sections using a cryostat-microtome. […] After 1 hour of washing, the BrdU-antibody complex was detected using 0.05% diaminobenzidine with 0.01% H2O2, and counterstained with Hematoxylin. […]
For all BrdU labelling experiments, three to six sections per animal were analysed. […] The number of BrdU-labelled cells per area of dentate granule cell layer was counted manually. […] BrdU-positive cells were counted along 2×250 micrometer strips of the lateral ventricle wall (see FIG. 18). Area measurements of both the dentate granule cell layer and the “counted” region of the lateral ventricle wall (including the ependymal cell layer and subventricular zone) were made from each slide used for the cell counts. […]

pituitary adenylate cyclase-activating polypeptide [PACAP]
incorporation of tritiated thymidine [1]: Greater incorporation of tritiated thymidine
sizes and number of neurospheres [2]: observably greater than that of the control
AP-1 expression (luciferace activity) [3]: significantly induced
proliferation in the subventricular zone of the lateral ventricle wall (BrdU-positive cells) [4]: significant increase in proliferation

Source: US20040038888A1 (priority 2002, published 2004)
